Laboratory results reported in ChEMBL document CHEMBL1201862, “PubChem BioAssay data set” (2004).
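Results reflect a 48-hour exposure of cells in 96-well plates to compound at five concentrations. The concentration for 50% growth inhibition is given as GI50.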 Calls of active or inactive are those of the source. Cut-off read from the data, not from the text of the source: active = GI50 up to about 1.1 µM and inactive = higher.

Tests used:
Experiment in all cases: NCI tumour cell line growth inhibition, 48 h
786-0 = test system: 786-0
A498 = test system: A498
ACHN = test system: ACHN
CAKI-1 = test system: CAKI-1
CCRF-CEM = test system: CCRF-CEM
COLO 205 = test system: COLO 205
DLD-1 = test system: DLD-1
DMS-114 = test system: DMS-114
DMS-273 = test system: DMS-273
HCC 2998 = test system: HCC 2998
HCT-116 = test system: HCT-116
HCT-15 = test system: HCT-15
HOP-18 = test system: HOP-18
HOP-62 = test system: HOP-62
HOP-92 = test system: HOP-92
HT-29 = test system: HT-29
IGROV-1 = test system: IGROV-1
K562 = test system: K562
KM-20L2 = test system: KM-20L2
LOX IMVI = test system: LOX IMVI
LXFL 529 = test system: LXFL 529
M14 = test system: M14
M19-MEL = test system: M19-MEL
MOLT-4 = test system: MOLT-4
NCI-H226 = test system: NCI-H226
NCI-H23 = test system: NCI-H23
NCI-H460 = test system: NCI-H460
NCI-H522 = test system: NCI-H522
OVCAR-3 = test system: OVCAR-3
OVCAR-4 = test system: OVCAR-4
OVCAR-5 = test system: OVCAR-5
OVCAR-8 = test system: OVCAR-8
RPMI-8226 = test system: RPMI-8226
RXF 393 = test system: RXF 393
RXF 631 = test system: RXF 631
SF-268 = test system: SF-268
SF-295 = test system: SF-295
SF-539 = test system: SF-539
SK-MEL-28 = test system: SK-MEL-28
SK-MEL-2 = test system: SK-MEL-2
SK-MEL-5 = test system: SK-MEL-5
SK-OV-3 = test system: SK-OV-3
SN12C = test system: SN12C
SNB-75 = test system: SNB-75
SNB-78 = test system: SNB-78
SR = test system: SR
SW-620 = test system: SW-620
TK-10 = test system: TK-10
U-251 = test system: U-251
UACC-257 = test system: UACC-257
UACC-62 = test system: UACC-62
UO-31 = test system: UO-31
A549 = test system: A549
EKVX = test system: EKVX
HL-60 = test system: HL-60
KM12 = test system: KM12
Malme-3M = test system: Malme-3M
SNB-19 = test system: SNB-19
XF498 = test system: XF498

CN(C)CC1CCC/C1=N/OC(=O)c1ccccc1 (stereo not drawn)
GI50 (786-0): > 100 µM (inactive)
GI50 (A498): > 100 µM (inactive)
GI50 (ACHN): > 100 µM (inactive)
GI50 (CAKI-1): > 100 µM (inactive)
GI50 (CCRF-CEM): > 100 µM (inactive)
GI50 (COLO 205): > 100 µM (inactive)
GI50 (DLD-1): > 100 µM (inactive)
GI50 (DMS-114): > 100 µM (inactive)
GI50 (DMS-273): > 100 µM (inactive)
GI50 (HCC 2998): > 100 µM (inactive)
GI50 (HCT-116): > 100 µM (inactive)
GI50 (HCT-15): > 100 µM
GI50 (HOP-18): > 100 µM (inactive)
GI50 (HOP-62): > 100 µM (inactive)
GI50 (HOP-92): > 100 µM (inactive)
GI50 (HT-29): > 100 µM (inactive)
GI50 (IGROV-1): > 100 µM (inactive)
GI50 (K562): > 100 µM (inactive)
GI50 (KM-20L2): > 100 µM (inactive)
GI50 (LOX IMVI): > 100 µM (inactive)
GI50 (LXFL 529): > 100 µM (inactive)
GI50 (M14): > 100 µM (inactive)
GI50 (M19-MEL): > 100 µM (inactive)
GI50 (MOLT-4): > 100 µM (inactive)
GI50 (NCI-H226): > 100 µM (inactive)
GI50 (NCI-H23): > 100 µM (inactive)
GI50 (NCI-H460): > 100 µM (inactive)
GI50 (NCI-H522): > 100 µM (inactive)
GI50 (OVCAR-3): > 100 µM (inactive)
GI50 (OVCAR-4): > 100 µM (inactive)
GI50 (OVCAR-5): > 100 µM (inactive)
GI50 (OVCAR-8): > 100 µM (inactive)
GI50 (RPMI-8226): > 100 µM (inactive)
GI50 (RXF 393): > 100 µM (inactive)
GI50 (RXF 631): > 100 µM (inactive)
GI50 (SF-268): > 100 µM (inactive)
GI50 (SF-295): > 100 µM (inactive)
GI50 (SF-539): > 100 µM (inactive)
GI50 (SK-MEL-28): > 100 µM (inactive)
GI50 (SK-MEL-2): > 100 µM (inactive)
GI50 (SK-MEL-5): > 100 µM (inactive)
GI50 (SK-OV-3): > 100 µM (inactive)
GI50 (SN12C): > 100 µM (inactive)
GI50 (SNB-75): > 100 µM (inactive)
GI50 (SNB-78): > 100 µM (inactive)
GI50 (SR): > 100 µM (inactive)
GI50 (SW-620): > 100 µM (inactive)
GI50 (TK-10): > 100 µM (inactive)
GI50 (U-251): > 100 µM (inactive)
GI50 (UACC-257): > 100 µM (inactive)
GI50 (UACC-62): > 100 µM (inactive)
GI50 (UO-31): > 100 µM (inactive)

COC(=O)C1C2CC3C(OC(=O)C31)C2OC(=O)[C@](OC)(c1ccccc1)C(F)(F)F (stereo partly drawn)
GI50 (786-0): > 100 µM (inactive)
GI50 (A498): > 100 µM (inactive)
GI50 (A549): > 100 µM (inactive)
GI50 (ACHN): > 100 µM (inactive)
GI50 (CAKI-1): > 100 µM (inactive)
GI50 (CCRF-CEM): > 100 µM (inactive)
GI50 (COLO 205): > 100 µM (inactive)
GI50 (DLD-1): > 100 µM (inactive)
GI50 (DMS-114): > 100 µM (inactive)
GI50 (DMS-273): > 100 µM (inactive)
GI50 (EKVX): > 100 µM (inactive)
GI50 (HCC 2998): > 100 µM (inactive)
GI50 (HCT-116): > 100 µM (inactive)
GI50 (HCT-15): > 100 µM
GI50 (HL-60): > 100 µM (inactive)
GI50 (HOP-62): > 100 µM (inactive)
GI50 (HOP-92): > 100 µM (inactive)
GI50 (HT-29): > 100 µM (inactive)
GI50 (IGROV-1): > 100 µM (inactive)
GI50 (K562): > 100 µM (inactive)
GI50 (KM-20L2): > 100 µM (inactive)
GI50 (KM12): > 100 µM (inactive)
GI50 (LOX IMVI): > 100 µM (inactive)
GI50 (LXFL 529): > 100 µM (inactive)
GI50 (M14): > 100 µM (inactive)
GI50 (M19-MEL): > 100 µM (inactive)
GI50 (MOLT-4): > 100 µM (inactive)
GI50 (Malme-3M): > 100 µM (inactive)
GI50 (NCI-H226): > 100 µM (inactive)
GI50 (NCI-H23): > 100 µM (inactive)
GI50 (NCI-H460): > 100 µM (inactive)
GI50 (NCI-H522): > 100 µM (inactive)
GI50 (OVCAR-3): > 100 µM (inactive)
GI50 (OVCAR-4): > 100 µM (inactive)
GI50 (OVCAR-5): > 100 µM (inactive)
GI50 (OVCAR-8): > 100 µM (inactive)
GI50 (RPMI-8226): > 100 µM (inactive)
GI50 (RXF 393): > 100 µM (inactive)
GI50 (RXF 631): > 100 µM (inactive)
GI50 (SF-268): > 100 µM (inactive)
GI50 (SF-539): > 100 µM (inactive)
GI50 (SK-MEL-28): > 100 µM (inactive)
GI50 (SK-MEL-2): > 100 µM (inactive)
GI50 (SK-MEL-5): > 100 µM (inactive)
GI50 (SK-OV-3): > 100 µM (inactive)
GI50 (SN12C): > 100 µM (inactive)
GI50 (SNB-19): > 100 µM (inactive)
GI50 (SNB-75): > 100 µM (inactive)
GI50 (SNB-78): > 100 µM (inactive)
GI50 (SR): > 100 µM (inactive)
GI50 (SW-620): > 100 µM (inactive)
GI50 (TK-10): > 100 µM (inactive)
GI50 (U-251): > 100 µM (inactive)
GI50 (UACC-257): > 100 µM (inactive)
GI50 (UO-31): > 100 µM (inactive)
GI50 (XF498): > 100 µM (inactive)
